US9783509B2, “Six-membered C-N-linked aryl sulfide derivatives and aryl sulfoxide derivatives as pest conrol agents” (BAYER CROPSCIENCE AKTIENGESELLSCHAFT, priority 2013, dated 2017)
Where two headings read alike, the source gives them in different places.

Tests used:
[1] = tested on: southern root-knot nematode (Meloidogyne incognita); assay: Meloidogyne incognita test (sand, lettuce, acetone solvent, 14 days); assay type: in vivo; settings: application rate 20 ppm, after 14 days; for pest or weed control at 20 ppm: Meloidogyne incognita, 336 h, read-out: nematicidal efficacy (formation of galls)
Experimental: Meloidogyne incognita Test
Solvent: 125.0 parts by weight of acetone
To produce an appropriate active ingredient formulation, 1 part by weight of active ingredient is mixed with the stated amount of solvent and the concentrate is diluted with water to the desired concentration.
Vessels are filled with sand, active ingredient solution, an egg/larvae suspension of the southern root-knot nematode (Meloidogyne incognita) and lettuce seeds. The lettuce seeds germinate and the plants develop. The galls develop on the roots
After 14 days, the nematicidal efficacy in % is determined by the formation of galls. 100% means that no galls were found; 0% means that the number of galls on the treated plants corresponds to the untreated control.

[2] = log P by reversed-phase HPLC analogously to OECD Guideline 117; assay type: physicochemical; settings: for chromatographic logP: reversed-phase C18 HPLC column
Experimental: The log P values were determined analogously to OECD Guideline 117 (EC Directive 92/69/EEC) by HPLC (high-performance liquid chromatography) using reversed-phase columns (C 18), by the following methods:
[a] LC-MS determination in the acidic range is effected at pH 2.7 with 0.1% aqueous formic acid and acetonitrile (containing 0.1% formic acid) as eluents with a linear gradient from 10% acetonitrile to 95% acetonitrile; or with 0.025% aqueous trifluoroacetic acid and acetonitrile (containing 0.025% trifluoroacetic acid) as eluents with a linear gradient from 50% acetonitrile to 80% acetonitrile.
[b] LC-MS determination in the neutral range is effected at pH 7.8 with 0.001 molar aqueous ammonium hydrogencarbonate solution and acetonitrile as eluents; linear gradient from 10% acetonitrile to 95% acetonitrile.
Calibration is effected with solutions of a homologous series of unbranched alkan-2-ones (having 3 to 16 carbon atoms) with known log P values (log P values determined on the basis of the retention times by linear interpolation between two successive alkanones).

[3] = tested on: greenhouse red spider mite (Tetranychus urticae); assay: Tetranychus urticae spray test, OP-resistant (bean leaf discs); assay type: in vivo; settings: after 6 days; for pest or weed control at 500 g/ha: Tetranychus urticae, foliar, 144 h, read-out: efficacy (spider mites killed)
Experimental: Tetranychus urticae—Spray Test, OP-Resistant
Solvent: 78.0 parts by weight of acetone • • 1.5 parts by weight of dimethylformamide
Emulsifier: alkylaryl polyglycol ether
To produce an appropriate active ingredient formulation, 1 part by weight of active ingredient is dissolved using the specified parts by weight of solvent and made up with water containing an emulsifier concentration of 1000 ppm until the desired concentration is attained. To produce further test concentrations, the preparation is diluted with emulsifier-containing water.
Discs of bean leaves (Phaseolus vulgaris) infested by all stages of the greenhouse red spider mite (Tetranychus urticae) are sprayed with an active ingredient formulation of the desired concentration.
After 6 days, the efficacy in % is determined. 100% means that all the spider mites have been killed; 0% means that none of the spider mites have been killed.

[4] = [a] acidic range, pH 2.7, formic acid (or trifluoroacetic acid)/acetonitrile
[5] = [b] neutral range, pH 7.8, ammonium hydrogencarbonate/acetonitrile
[6] = pH 2.7, running text, [a] acidic range, pH 2.7, read-out: log P[a]
[7] = pH 2.7, table column, [a] acidic range, pH 2.7, formic acid (or trifluoroacetic acid)/acetonitrile, read-out: LogP[a]
[8] = pH 7.8, running text, [b] neutral range, pH 7.8, read-out: log P[b]
[9] = pH 7.8, table column, [b] neutral range, pH 7.8, ammonium hydrogencarbonate/acetonitrile, read-out: LogP[b]

| SMILES | nematicidal efficacy (formation of galls) [1] [%] | LogP[a] [2, 4] | LogP[b] [2, 5] | efficacy (spider mites killed) ([3]; application rate 500 g/ha) [%] | also measured |
| --- | --- | --- | --- | --- | --- |
| O=c1cnn(-c2cc([S+]([O-])CC(F)(F)F)c(Cl)cc2Cl)c(=O)[nH]1 (racemic) [compound 15] | 90 | 2.02 | 1.1 |  |  |
| Cc1cc(F)c(-n2ncc(=O)n(C(C)C)c2=O)cc1[S+]([O-])CC(F)(F)F (racemic) [compound 30] | 100 | 2.64 | 2.58 | 100 |  |
| Cc1cc(F)c(-n2ccc(=O)n(CC#N)c2=O)cc1[S+]([O-])CC(F)(F)F (racemic) [compound 61] | 100 | 1.72 | 1.73 | 90 |  |
| Cc1cc(F)c(-n2ccc(=O)n(CC3CC3)c2=O)cc1[S+]([O-])CC(F)(F)F (racemic) [compound 62] | 100 | 2.29 | 2.37 | 90 |  |
| Cc1cc(F)c(-n2ccc(=O)n(C(C)C)c2=O)cc1[S+]([O-])CC(F)(F)F (racemic) [compound 63] | 100 | 2.22 | 2.31 | 90 |  |
| Cc1cc(F)c(-n2ccc(=O)n(Cc3ccc(F)cc3)c2=O)cc1[S+]([O-])CC(F)(F)F (racemic) [compound 64] | 100 | 2.68 | 2.77 |  | efficacy (spider mites killed) ([3]; application rate 100 g/ha): 90% |
| C=CCn1c(=O)ccn(-c2cc([S+]([O-])CC(F)(F)F)c(C)cc2F)c1=O (racemic) [compound 65] | 100 | 2.01 | 2.08 |  | efficacy (spider mites killed) ([3]; application rate 100 g/ha): 90% |
| Cc1cc(F)c(-n2ccc(=O)n(C)c2=O)cc1SCC(F)(F)F [Ex. No. 53, 1-{2-Fluoro-4-methyl-5-[(2,2,2-trifluoroethyl)sulphanyl]phenyl}-3-methylpyrimidine-2,4(1H,3H)-dione] |  |  |  |  | pest or weed control at 20 ppm [1]: 100%; pest or weed control at 500 g/ha ([3]; application rate 500 g/ha): 90%; chromatographic logP [2, 6]: 2.59; chromatographic logP [2, 7]: 2.53; chromatographic logP [2, 8]: 2.53; chromatographic logP [2, 9]: 2.59 |
| Cc1cc(F)c(-n2ccc(=O)[nH]c2=O)cc1[S+]([O-])CC(F)(F)F (stereo not shown) [Ex. No. 56, 1-{2-Fluoro-4-methyl-5-[(2,2,2-trifluoroethyl)sulphinyl]phenyl}pyrimidine-2,4(1H,3H)-dione] |  |  |  |  | pest or weed control at 20 ppm [1]: 90%; pest or weed control at 500 g/ha ([3]; application rate 500 g/ha): 100%; chromatographic logP [2, 6]: 1.3; chromatographic logP [2, 7]: 1.24; chromatographic logP [2, 8]: 1.24; chromatographic logP [2, 9]: 1.3 |
| Cc1ccc(-n2ccc(=O)n(C)c2=O)cc1[S+]([O-])CC(F)(F)F (stereo not shown) [Ex. No. 57, 3-Methyl-1-{4-methyl-3-[(2,2,2-trifluoroethyl)sulphinyl]phenyl}pyrimidine-2,4(1H,3H)-dione] |  |  |  |  | pest or weed control at 20 ppm [1]: 90%; chromatographic logP [2, 6]: 1.5; chromatographic logP [2, 7]: 1.49; chromatographic logP [2, 8]: 1.49; chromatographic logP [2, 9]: 1.5 |
| Cc1ccc(-n2ccc(=O)n(C)c2=O)cc1SCC(F)(F)F [Ex. No. 58, 3-Methyl-1-{4-methyl-3-[(2,2,2-trifluoroethyl)sulphanyl]phenyl}pyrimidine-2,4(1H,3H)-dione] |  |  |  |  | pest or weed control at 20 ppm [1]: 100%; pest or weed control at 500 g/ha ([3]; application rate 500 g/ha): 90%; chromatographic logP [2, 6]: 2.48; chromatographic logP [2, 7]: 2.39; chromatographic logP [2, 8]: 2.39; chromatographic logP [2, 9]: 2.48 |
| CCn1c(=O)ccn(-c2cc([S+]([O-])CC(F)(F)F)c(C)cc2F)c1=O (stereo not shown) [Ex. No. 59, 3-Ethyl-1-{2-fluoro-4-methyl-5-[(2,2,2-trifluoroethyl)sulphinyl]phenyl}pyrimidine-2,4(1H,3H)-dione] |  |  |  |  | pest or weed control at 20 ppm [1]: 100%; pest or weed control at 500 g/ha ([3]; application rate 500 g/ha): 90%; chromatographic logP [2, 6]: 1.94; chromatographic logP [2, 7]: 1.88; chromatographic logP [2, 8]: 1.88; chromatographic logP [2, 9]: 1.94 |
| CCn1c(=O)ccn(-c2cc(SCC(F)(F)F)c(C)cc2F)c1=O [Ex. No. 71, 3-Ethyl-1-{2-fluoro-4-methyl-5-[(2,2,2-trifluoroethyl)sulphanyl]phenyl}pyrimidine-2,4(1H,3H)-dione] |  |  |  |  | pest or weed control at 20 ppm [1]: 100%; pest or weed control at 500 g/ha ([3]; application rate 500 g/ha): 90%; chromatographic logP [2, 6]: 2.93; chromatographic logP [2, 7]: 2.86; chromatographic logP [2, 8]: 2.86; chromatographic logP [2, 9]: 2.93 |
| O=c1cnn(-c2cc(SCC(F)(F)F)c(Cl)cc2Cl)c(=O)[nH]1 [compound 8] | 90 | 2.72 | 1.4 |  |  |
| O=c1cnn(-c2cc(SCC(F)(F)F)c(Cl)cc2Cl)c(=O)n1CC(F)(F)F [compound 12] | 90 | 3.93 |  | 90 |  |
| Cn1c(=O)cnn(-c2cc(SCC(F)(F)F)c(Cl)cc2Cl)c1=O [compound 14] | 90 | 3.31 |  | 100 |  |
| Cc1cc(F)c(-n2ncc(=O)n(CC#N)c2=O)cc1SCC(F)(F)F [compound 39] | 90 | 2.96 | 2.9 | 100 |  |
| C#CCn1c(=O)ccn(-c2cc([S+]([O-])CC(F)(F)F)c(C)cc2F)c1=O (stereo not shown) [compound 67] | 100 | 1.86 | 1.92 |  | efficacy (spider mites killed) ([3]; application rate 20 g/ha): 90% |
| COCn1c(=O)ccn(-c2cc([S+]([O-])CC(F)(F)F)c(C)cc2F)c1=O (stereo not shown) [compound 68] | 100 | 1.67 | 1.74 | 90 |  |
| Cc1cc(F)c(-n2ccc(=O)n(CC(C)C)c2=O)cc1[S+]([O-])CC(F)(F)F (stereo not shown) [compound 69] | 100 | 2.48 | 2.55 |  |  |
| Cc1cc(F)c(-n2ccc(=O)n(CC(F)F)c2=O)cc1[S+]([O-])CC(F)(F)F (stereo not shown) [compound 70] | 100 | 2.06 | 2.11 | 90 |  |
| Cc1cc(F)c(-n2ccc(=O)n(CC(F)(F)F)c2=O)cc1SCC(F)(F)F [compound 72] | 100 | 3.16 | 3.29 | 90 |  |
| Cc1cc(F)c(-n2ccc(=O)n(CC(C)C)c2=O)cc1SCC(F)(F)F [compound 81] |  | 3.56 | 3.62 | 90 |  |
| Cc1ccc(-n2ccc(=O)[nH]c2=O)cc1SCC(F)(F)F [compound 88] |  | 1.99 | 2.05 | 90 |  |
| Cc1cc(C)c(-n2ccc(=O)[nH]c2=O)cc1SCC(F)(F)F [compound 89] |  | 2.18 | 2.25 | 100 |  |
| Cc1ccc(-n2ccc(=O)[nH]c2=O)cc1[S+]([O-])CC(F)(F)F (stereo not shown) [compound 91] |  | 1.20 | 1.19 | 100 |  |
| Cc1cc(C)c([S+]([O-])CC(F)(F)F)cc1-n1ccc(=O)n(C)c1=O (stereo not shown) [compound 93] |  | 1.68 | 1.7 | 100 |  |
| Cc1cc(C)c(-n2ccc(=O)n(CC(F)(F)F)c2=O)cc1SCC(F)(F)F [compound 94] |  | 3.39 | 3.49 | 100 |  |
| CCn1c(=O)ccn(-c2cc(SCC(F)(F)F)c(C)cc2C)c1=O [compound 96] |  | 2.98 | 3.07 | 100 |  |
| Cc1cc(C)c([S+]([O-])CC(F)(F)F)cc1-n1ccc(=O)[nH]c1=O (stereo not shown) [compound 99] |  | 1.35 | 1.38 | 100 |  |
